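The compound was tested at five concentrations on cells cultured in 96-well plates, with a 48-hour exposure period. The concentration for 50% growth inhibition is given as GI50. Definition used: TGI = concentration required for complete inhibition of growth.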 *1 amine or outer side, *2 acyl side, *3 side chain or, on linkers, in order; H or OH if unused. Where a SMILES comes first, the peptide text is derived from it. [ ]: non-standard residue; d: D form. The star is where a group is joined. Phe(4-NO2) = N[CH](Cc1ccc([N+](=O)[O-])cc1)C(=O)O; X32 = C[C@H](N[*:1])C(=O)C(C)(C)C(=O)[*:2]; Hmpa(2S,3S) = CC[C@H](C)[C@H](O)C(=O)O; NMeY = CN[C@@H](Cc1ccc(O)cc1)C(=O)O; NMeL = CN[C@@H](CC(C)C)C(=O)O; NMeV = CN[C@H](C(=O)O)C(C)C; Boc = CC(C)(C)OC(=O)*; βAla = NCCC(=O)O
Legend:
Experiment in all cases: NCI tumour cell line growth inhibition, 48 h
[1] = test system: SW-620 colon
[2] = test system: IGROV1 ovarian
[3] = test system: NCI-H522 lung

SMILES | TGI [1] [µM] | TGI [2] [µM] | TGI [3] [µM] | GI50 [3] [µM]
O=C1C(c2c(O)[nH]c3ccc(Br)cc23)=Nc2ccccc21 | > 100 | 13 | 39.7 | 
OCCNCNc1nc(NCNCCO)nc(N(CNCCO)CNCCO)n1 | > 54 | 49.4 | 41.3 | 
CC(C)NC(=O)CN1CCN(c2c(O)c3c(c(O)c2Cl)C(=O)C=CC3=O)CC1 | 1.92 | 4.66 | 3.33 | 
Cc1ccc2c(c1)-c1nc(N)c(C#N)c(-c3ccccc3)c1CCS2(=O)=O | > 100 | > 100 | > 100 | 
C(=C\c1ccco1)/c1cccc(/C=C/c2ccco2)n1 | > 50 | > 50 | > 50 | 
CC(=O)OCC1OC(n2c(-c3ccc(C)cc3)cc(-c3ccccc3)c(C#N)c2=S)C(OC(C)=O)C(OC(C)=O)C1OC(C)=O (centres undefined) | > 100 | > 100 | > 100 | 
CNC(=O)CCC(NC(=O)OC(C)(C)C)C(=O)NC(Cc1ccc([N+](=O)[O-])cc1)C(=O)NCC(=O)NC (centres undefined) (Boc-Glu(NHMe)-[Phe(4-NO2)]-Gly-NHMe; configuration not given here) | > 100 | > 100 | > 100 | 
Cc1cc(=O)oc2c(CNC(Cc3ccccc3)C(=O)O)c(O)ccc12 (centres undefined) | > 100 | > 100 | > 100 | 
N#C/C(N)=C(\C#N)NC(=O)C(=O)N/C(C#N)=C(\N)C#N | > 100 | > 100 | > 100 | 
N[C@H]1CCCC[C@@H]1N1C(=O)c2ccccc2C1(O)c1ccc(Cl)cc1 (some centres undefined) | 24.2 | 25.7 | 27.8 | 
CCC(C#N)NCc1cccc(CNC(C#N)CC)c1 (centres undefined) | > 100 | > 100 | > 100 | 
O=C(Nc1nc(C23CC4CC(CC(C4)C2)C3)cs1)c1cc2ccccc2oc1=O | > 100 | > 100 | > 100 | 
COCN1C(=O)[C@@H]2CCCN2C(=O)c2cc(N)ccc21 | > 100 | > 100 | > 100 | 
COc1ccc(/C=C2\CCC(C)C3=C2N=c2s/c(=C/c4cccc(Br)c4)c(=O)n2C3c2ccc(OC)c(OC)c2)cc1OC (centres undefined) | > 100 | > 100 |  | 
Cc1ccnc(NC(NC(=O)c2ccccc2)(C(F)(F)F)C(F)(F)F)c1 | > 100 | > 100 | > 100 | 
CCOC(=O)CCC(NC(=O)c1ccc(OCc2ccc3nc(-c4ccccc4)c(Cl)nc3c2)cc1)C(=O)OCC (centres undefined) | > 31.6 | > 31.6 | > 31.6 | 
COc1cc(/C=c2\sc3n(c2=O)C(c2ccc(Cl)cc2)C2=C(CCCC2C)N=3)cc(OC)c1OC (centres undefined) | > 100 | > 100 |  | 
N#Cc1ccc(-n2c3ccccc3c3ccc4c(c32)C(=O)C=CC4=O)cc1 | 3.31 | 16.2 | 1.19 | 

SMILES | TGI [1] [µM] | TGI [2] [µM] | TGI [3] [µM] | GI50 [3] [µM]
Cc1cc(S(=O)(=O)Nc2nc3ccccc3c(=O)n2N)c(S)cc1Cl | > 100 | > 100 | 50.7 | 19
CN(C)c1nc(Cl)c2c(-c3ccccc3)c(-c3ccccc3)oc2n1 | > 100 | > 100 | 78.7 | 
O=C(NCCCCCCNC(=O)c1cc(-c2ccccc2)nc2ccccc12)c1cc(-c2ccccc2)nc2ccccc12 | > 100 | > 100 | > 100 | 
COI1NC(=O)c2ccccc21 | > 100 | > 100 | > 100 | 
O=[N+]([O-])c1cc(-c2nc(-c3ccccc3)c(-c3ccccc3)[nH]2)c(O)c([N+](=O)[O-])c1 | 90.8 | > 100 | 63.7 | 
COc1ccc(C(=O)/C=C/c2cc(O)c(O)c(F)c2F)c(OC)c1 | > 100 | > 100 | 30.3 | 
CCOC(=O)c1ccc(NCC#CCN2CCCCC2)cc1 | > 100 | > 100 |  | 
COc1cc(CNNC(N)=S)cc(OC)c1OC | > 100 | > 100 | > 100 | 
C[C@@H]1CC[C@@H]2[C@@H](C1)O[C@@H]([C@H](C)OCc1ccccc1)SC2(C)C | 36.3 | > 100 | 40.2 | 
O=[N+]([O-])c1ccc(N/N=C/c2ccc(OCCCCCCCCCCCO)cc2)c([N+](=O)[O-])c1 | > 100 | 67.4 | 9.44 | 
O=C(O)CN1C(=O)C(Cc2ccc(O)cc2)N=C(c2cccc(O)c2)c2ccccc21 (centres undefined) | > 100 | > 100 | > 100 | 
CC[C@H](C)[C@@H]1OC(=O)CCNC(=O)[C@@H](C)NC(=O)C(C)(C)C(=O)[C@H](C)NC(=O)[C@H](Cc2ccc(OC)cc2)N(C)C(=O)[C@H](C(C)C)N(C)C(=O)CNC(=O)[C@H](CC(C)C)N(C)C(=O)CNC1=O (cyclo(G[NMeL]G[NMeV][NMeY](Me)[X32][dA][βAla][Hmpa(2S,3S)])) | > 50 | 4.16 | > 50 | 
N#Cc1c(N)nc(Sc2ccccc2N)c(C#N)c1-c1ccc(Cl)cc1 | > 100 | 33.6 | 35.8 | 
O=C(NNC(=S)NC1CCCCC1)c1csc(NC(=S)NC2CCCCC2)n1 | 19.5 | 26.6 | 28.2 | 
O=C1CSC(c2cccc([N+](=O)[O-])c2)N1c1ccc(-n2c(-c3ccccc3)nc3ccccc3c2=O)cc1 (centres undefined) | > 100 | > 100 | > 100 | 
CC(C)(C)OC(=O)N1C(c2cccnc2)=CC[C@H]2C3CC=C(c4cccnc4)[C@@]3(C)CC[C@@H]21 (some centres undefined) | 15.8 | 16.4 | 11.9 | 
O=C1Oc2cc(O)cc(/C=C/c3ccc(O)cc3)c2[C@@]12c1c(O)cc(O)cc1OC2c1cccc(O)c1 (some centres undefined) |  | 31 |  | 
CC(=O)Nc1c(C)cc2c(nc3n2CCC3O)c1[N+](=O)[O-] (centres undefined) | > 100 | > 100 | > 100 | 

From PubChem BioAssay (NCI)
